# Test results as given in patent US20240317735A1, “HYDROISOQUINOLINE OR HYDRONAPHTHYRIDINE COMPOUNDS FOR THE TREATMENT OF AUTOIMMUNE DISEASE” (Hoffmann-La Roche Inc., priority 2020, published 2024).
# Read-outs that look alike come from different tables or passages of the source.
# Columns and labels:
# [1] = Single dose pharmacokinetics (PK) study in male Wister-Han rats; type: in vivo, rat; conditions: for F: dose normalized AUC0-last PO 10 mg/kg vs IV 2 mg/kg; for AUC(0-t) / Cmax / clearance / half-life / Vd: rat, plasma; for Vd: read-out: Vss
# Method: Pharmacokinetic properties of selected compounds were assessed by single dose PK studies in Male Wister-Han Rats (vendor: Beijing Vital River Laboratory Animal Technology Co., Ltd). Briefly, two groups of animals were administered a single dose of respective compound intravenously (IV, bolus) at 2 mg/kg or orally (PO, by gavage) at 10 mg/kg. Blood samples (approximately 150 μL) were collected via Jugular vein at 5 min (only for IV), 15 min, 30 min, 1 h, 2 h, 4 h, 7 h and 24 h post-dose. Blood samples were placed into tubes containing EDTA-K2 anticoagulant and centrifuged at 3000 rpm for 15 min at 4° C. to separate plasma from the samples. After centrifugation, the resulting plasma was transferred to clean tubes for bioanalysis with LC/MS/MS. The pharmacokinetic parameters were calculated using non-compartmental analysis. The volume of distribution (Vss), half-life (T1/2) and clearance (CL) were obtained based on the plasma concentration-time curve after IV dose. The peak concentration (Cmax) was recorded directly from experimental observations after PO dose. The area under the plasma concentration-time curve (AUC0-last) was calculated using the linear trapezoidal rule up to the last detectable concentration. The bioavailability (F) was calculated based on the dose normalized AUC0-last after IV and PO dose.
# The Vss of a drug represents the degree to which a drug is distributed in body tissue rather than the plasma. Vss is directly proportional with the amount of drug distributed into tissue. A higher Vss indicates a greater amount of tissue distribution.
# [2] = tested on: embryonic stem cells (D3) and 3T3 fibroblasts; test: mouse Embryonic Stem Cell Test (mEST); type: cell-based; conditions: <0.5 negative, >0.6 positive, 0.5-0.6 borderline
# Excerpt: The in vitro mouse Embryonic Stem Cell Test (mEST) assay is an implemented routine assay at Roche. The original EST was developed by Horst Spielmann and his group in 1997 as an in vitro model for the screening of embryotoxicity, based on a blastocyst-derived permanent embryonic mouse ESC (mESC) D3 cell line derived from mouse 129 strains and was validated by European Centre for the Validation of Alternative Methods (ECVAM).
# We further optimized and modified the approach allowing for the application of the assay to pharmaceutical compounds.
# The cytotoxicity (inhibition of growth) of 3T3 fibroblasts, which represents differentiated cells and the cytotoxicity of undifferentiated embryonic stem cells (D3) after 10 days of substance treatment serve as two assay endpoints. This is determined by the use of dehydrogenase enzymes, which are present in the intact mitochondria of living cells to convert yellow soluble substrate 3-(4,5-dimethythiazol-2-yl)-2,5-diphenyl tetrazolium bromide (MTT) into a dark blue insoluble formazan product, which gets sequestered within the cells and is detected quantitatively using an absorbance reader (570 nm) after solubilizing the cell membrane.
# The third endpoint is the inhibition of differentiation of ES cells into myocards which are cardiac muscle cells after 10 days of treatment. The beating of this cells is evaluated by microscopy.
# • 1) Cell passage with trypsin 0.05% EDTA for D3 cells. • 2) Assembly of the cell suspension: dilute cells to 2.5×10^4/mL with 18 ml media (for each test) in 50 mL Falcon tubes. • 3) Prepare the petri dishes (PD): add 5-10 mL sterile Dulbecco's PBS (Gibco) into each dish bottom, distribute over the whole dish. • 4) Dilution series of test compound in Eppendorf tubes: add 5 μL of compound (1:400 dilution) and 5 μL control solution (DMSO) to 2 mL cell suspension, vortex. • 5) Preparation of hanging drops in petridishes: vortex tube, aspirate suspension with automatic pipette and multi-dispense 20 μL drops onto the lid of the petri dish, add 2 mL in total in a concentric circle of drops (˜100 drops); quickly but smoothly turn the cover and put on PD; incubate for 3 days at 37° C./5% CO2.
# • 1) Dilution series of compound in 14 mL PP tubes • 6 tubes for the concentrations; fill with 5 mL assay media • 1 tube for DMSO (solvent control) fill with 5 mL assay media • 2) Dilution series of compound in Eppendorf tubes • Add 12.5 μL of compound (1:400 dilution) and 12.5 μL control solution, vortex • 3) Transfer of embryoid bodies in a bacterial Petri dish • Carefully turn PD lid, check the drops for fungus contamination • Rinse several times the drops down with 5 mL of the prepared solution • Transfer in a bacterial petri dish Incubate for 3 days at 37° C./5% CO2 […]
# [3] = IV 2 mg/kg, read-out: IV AUC0-last
# [4] = PO 10 mg/kg, read-out: PO AUC0-last
Compound,F [1] [%],"AUC(0-t) [1, 3] [ng·h/mL]",Cmax ([1]; PO 10 mg/kg) [ng/mL],"AUC(0-t) [1, 4] [ng·h/mL]",clearance ([1]; IV 2 mg/kg) [mL/min/kg],half-life ([1]; IV 2 mg/kg) [h],Vd ([1]; IV 2 mg/kg) [L/kg],Predictive scores D12_3 [2]
"C[C@H]1CN(c2ccnc3c2cnn3C)Cc2ccc(N3CCNCC3)cc21 [Example 1, (4R)-4-methyl-2-(1-methylpyrazolo[3,4-b]pyridin-4-yl)-6-piperazin-1-yl-3,4-dihydro-1H-isoquinoline]",113,1290,474,7270,24,6.9,11.2,–
"C[C@H]1CN(c2ccnc3c2cnn3C)Cc2ccc(OC[C@H]3CNCCN3)cc21 [Example 18, (4R)-4-methyl-2-(1-methylpyrazolo[3,4-b]pyridin-4-yl)-6-[[(2R)-piperazin-2-yl]methoxy]-3,4-dihydro-1H-isoquinoline]",–,–,–,–,–,–,–,0.11
"C[C@H]1CN(c2ccnc3c2cnn3C)Cc2ccc(OC[C@@H]3CNCCN3)cc21 [Example 19, (4R)-4-methyl-2-(1-methylpyrazolo[3,4-b]pyridin-4-yl)-6-[[(2S)-piperazin-2-yl]methoxy]-3,4-dihydro-1H-isoquinoline]",32,887,102,1410,34,8.9,16,0.05
"CO[C@@H]1CN(c2ccc3c(c2)[C@@H](C)CN(c2ccnc4c2cnn4C)C3)C[C@H]1N [Example 20, (3R,4R)-4-methoxy-1-[(4R)-4-methyl-2-(1-methylpyrazolo[3,4-b]pyridin-4-yl)-3,4-dihydro-1H-isoquinolin-6-yl]pyrrolidin-3-amine]",60,5480,1140,16500,6,3.3,1.5,0.49
"CO[C@@H]1CN(c2ccc3c(c2)[C@@H](C)CN(c2cc(C)nc4c2cnn4C)C3)C[C@H]1N [Example 23, (3R,4R)-4-methoxy-1-[(4R)-2-(1,6-dimethylpyrazolo[3,4-b]pyridin-4-yl)-4-methyl-3,4-dihydro-1H-isoquinolin-6-yl]pyrrolidin-3-amine]",73,7550,1600,27500,3.7,10.5,2.7,–
"CO[C@@H]1CN(c2ccc3c(n2)[C@@H](C)CN(c2cc(C)nc4c2cnn4C)C3)C[C@H]1N [Example 63, (3R,4R)-4-methoxy-1-[(8S)-6-(1,6-dimethylpyrazolo[3,4-b]pyridin-4-yl)-8-methyl-7,8-dihydro-5H-1,6-naphthyridin-2-yl]pyrrolidin-3-amine]",98,80700,22200,394000,0.26,18.3,0.38,0.43
